Consider two compounds from patent US5290817A, “Substituted 1-benzylindanes and their use as inhibitors of phospholipase A2” (The Du Pont Merck Pharmaceutical Co., priority 1992, dated 1994).

Each structure is given as a SMILES string.

Assay [1] deals with porcine pancreatic phospolipase A2. The settings on record: Ripka et al., Journal of Cellular Biochemistry, 40, 279-286 (1989); cited from earlier work.
Assay [2] addresses PLA2 from Crotalus adamanteus (Crotalus adamanteus, UniProt P00623). As to the kind of experiment: biochemical. More on the design: species or system Crotalus adamanteus (snake venom).
A short description of assay [3]: Carrageenan Paw Edema Assay. Conditions: 50 mg/kg, intraperitoneal, paw volume at three hours; n = 3. The class given is in vivo, rat (male Sprague-Dawley). Background: Carrageenan injected into the paw causes an acute inflammation.
Protocol: The test procedure is as follows: male Caesarian-derived Sprague-Dawley rates from Charles River Laboratories are maintained on rat chow and water ad libidum and on a 12 hour light/12 hour dark cycle until they weight 160-210 grams.
One drop of Tween 80 per 10 ml of methylcellulose and 4 mm glass beads are added to each suspension. Each compound is bead-milled for one hour prior to use.
Dosing is intraperitioneal.
After dosing, all animals are given tap water so that the total volumes of fluid administered to each rat orally is 5.0 ml. This achieves uniform hydration of the rats and thus minimizes variability of the edematous response in the paw.
Sigma Type IV lambda carrageenan (Sigma Chemical Company, St. Louis, Mo., #C3889) is suspended in 0.9% sterile saline usually as a 1% solution (100 mg/10 ml). This preparation is bead-milled one hour prior to use. […]
Immediately following injection initial paw volume readings are taken, and then again three hours later using a Ugo Basile volume plethysmometer. The differences between the initial reading and the three hour reading is then calculated. Means; S.E.M. of these difference are determined for each group. The percent decrease from the control volumes are calculated using the following formula: [formula] Data are evaluated using the Student's t-test and p 0.05 is considered significant.

PLA2 from Crotalus adamanteus, sequence (P00623 17-138 limits assumed): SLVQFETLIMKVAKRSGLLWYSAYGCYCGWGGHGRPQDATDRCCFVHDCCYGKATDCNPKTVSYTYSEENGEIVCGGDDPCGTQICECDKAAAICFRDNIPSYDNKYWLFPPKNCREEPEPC

On to `Oc1cccc(CC2CCc3ccccc32)c1` (stereo not drawn), for which the “inhibitory activity against porcine pancreatic phospolipase A2” value in assay [1] is “claimed to possess inhibitory activity”. Usually IC50 stands for the midpoint of a concentration-inhibition curve. A low value points to greater potency in that assay. `O=CCc1cccc(CC2CCc3ccccc32)c1` (stereo not drawn) [Ex. 12, 3-(2',3'-Dihydroinden-1'-ylmethyl)-phenylacetaldehyde] displayed an IC50 in assay [2] of 2400 nM. In assay [3], the “Carr. Paw Edemia Inhib. %” value is 51%.
